Test results from US20080188494A1 (priority 2005, published 2008).

Key:
Plasmopara viticola [1] = experiment: Activity against peronospora of grapevines caused by Plasmopara viticola, 7 day protective treatment (Comparative Example 2); assay type: in vivo; settings: 250 ppm, potted vines, inoculated 7 days after spraying; untreated plants 90% infected
Experimental: (§1) The active compounds were prepared as a stock solution comprising 25 mg of active compound which was made up to 10 ml using a mixture of acetone and/or DMSO and the emulsifier Uniperol® EL (wetting agent having emulsifying and dispersing action based on ethoxylated alkylphenols) in a volume ratio of solvent/emulsifier of 99/1. The mixture was then made up to 100 ml with water. This stock solution was diluted with the solvent/emulsifier/water mixture described to the concentration of active compounds stated below.
Leaves of potted vines were sprayed to runoff point with an aqueous suspension having the concentration of active compounds stated below. To be able to assess the persistency of the substances, the plants were, after the spray coating had dried on, placed in a greenhouse for 7 days. Only then were the leaves inoculated with an aqueous zoospore suspension of Plasmopara viticola. The vines were then initially placed in a water-vapor-saturated chamber at 24° C. for 48 hours and then in a greenhouse at temperatures between 20 and 30° C. for 5 days. After this time, the plants were once more placed in a humid chamber to accelerate the eruption of sporangiospores. The extent of the development of the infection on the undersides of the leaves was then determined visually.

Plasmopara viticola [2] = experiment: Activity against peronospora of grapevines caused by Plasmopara viticola (Comparative Example 1, inoculation next day); assay type: in vivo; settings: 250 ppm, potted vines sprayed to runoff, inoculated next day; untreated plants 90% infected
Experimental: as §1
(§2) Leaves of potted vines were sprayed to runoff point with an aqueous suspension having the concentration of active compounds stated below. The next day, the undersides of the leaves were inoculated with an aqueous sporangia suspension of Plasmopara viticola. The vines were then initially placed in a water-vapor-saturated chamber at 24° C. for 48 hours and then in a greenhouse at temperatures between 20° C. and 30° C. for 5 days. After this time, the plants were once more placed in a humid chamber for 16 hours to accelerate the eruption of sporangiospores. The extent of the development of the infection on the undersides of the leaves was then determined visually.

Plasmopara viticola [3] = experiment: Activity against peronospora of grapevines caused by Plasmopara viticola (Use Example 3); assay type: in vivo; settings: 250 ppm, potted vines sprayed to runoff, inoculated next day; untreated plants 90% infected
Experimental: as §1, §2

SMILES	infection of the plants (undersides of leaves, determined visually) (Plasmopara viticola [1]) [%]	infection of the plants (undersides of leaves, determined visually) (Plasmopara viticola [2]) [%]	melting point [°C]	infection of the plants (undersides of leaves, determined visually) (Plasmopara viticola [3])
Cc1nc2ncnn2c(N)c1CCCc1ccccc1 [Compound A]	70	90		
CCc1nc2ncnn2c(N)c1CCc1ccccc1 [I-1, 7-amino-5-ethyl-6-(2-phenylethyl)-(1,2,4)-triazolo-(1,5-a)-pyrimidine]			210 to 211	no infection
CCCc1nc2ncnn2c(N)c1CCc1ccccc1 [I-2, 7-amino-6-(2-phenylethyl)-5-propyl-(1,2,4)-triazolo-(1,5-a)-pyrimidine]			190 to 191	no infection
